Reference: patent publication US5972625A, “Assays for inhibitors of leukocyte adhesion” (The Regents of the University of California, priority 1997, dated 1999)
Blank lines part the entries; values can stand above or below the molecule they belong to.

Key:
L-selectin [1] = test: Inhibition of L-selectin binding to GlyCAM-1 (ELISA with L-selectin-IgG chimera); details: for Interaction of L-selectin with GlyCAM-1: FIG. 6, result in words
Description: (§1) The CAMO2 antibody is diluted to a concentration of 1.6 μg/ml in PBS with 0.1% NaN3, and 100 μl of this solution is dispensed into each well of a 96-well plate. The plate is incubated overnight at 4° C. to allow adsorption of the antibody onto the solid support. The plate is then washed three times with PBS containing 0.1% tween, and blocked with 200 μl/well of a 3% solution of BSA in PBS for 2 hours at room temperature.
(§2) A crude GlyCAM-1 preparation is produced by extracting mouse serum with chloroform/methanol solution, followed by dialysis against PBS. After removing the blocking solution, 100 μl of this solution is dispensed into each well, and the plate is incubated for 1 hour at room temperature.
Chimeric molecules of the invention and more specifically, complexes of L-selectin with a secondary antibody and streptavidin-alkaline phosphates are formed as follows:
2 mg/ml L-selectin-IgG chimera
(§3) 2/1000 dilution of biotinylated goat anti-human Fc F(ab')2 (Caltag)
(§4) 2/1000 dilution of streptavidin-alkaline phosphatase (Caltag)
In PBS with 2% BSA and 5% normal rabbit serum
In a separate 96-well plate, 80 μl of serial dilutions of the test inhibitors dissolved in PBS are dispensed into each well. To each inhibitor-containing well is added 80 μl of the selectin-IgG/antibody/streptavidin-alkaline phosphatase complex solution. The plate is then incubated for 30 minutes at 4° C.
The plate containing CAMO2 antibody and captured GlyCAM-1 is washed three times with PBS/0.1% TWEEN detergent, and […] of each selectin complex/inhibitor mixture is transferred to the wells of the GlyCAM-containing plate. This plate is then incubated for 30 minutes at room temperature.
Finally, the solutions are removed from the GlyCAM-1 plate and the plate is washed three times with PBS/0.1% TWEEN detergent. […] of alkaline phosphatase substrate solution (p-nitrophenyl phosphate in ethanolamine/MgCl2) buffer is added to each well to detect the presence of bound selectin complex and the plate is quantified with a 96-well plate reader at 405 nm.

P-selectin = test: Inhibition of P-selectin binding to GlyCAM-1 (ELISA with P-selectin-IgG chimera)
Description: as §1, §2
Chimeric molecules of the invention and more specifically, complexes of P-selection with a secondary antibody and streptavidin-alkaline phosphates are formed as follows:
4 μg/ml P-selectin-IgG chimera
as §3, §4
(§5) In PBS with 0.2% BSA and 5% normal rabbit serum
(§6) Assays as per Example 1-3 were used to determine IC50 's for the inhibition of L-, P- or E-selectin binding to GlyCAM-1 for a number of compounds.

E-selectin = test: Inhibition of E-selectin binding to GlyCAM-1 (ELISA with E-selectin-IgG chimera)
Description: as §1, §2
Chimeric molecules of the invention and more specifically, complexes of E-selection with a secondary antibody and streptavidin-alkaline phosphates are formed as follows:
4 μg/ml E-selectin-IgG chimera
as §3, §4, §5, §6

[2] = test system: lymphocyte attachment to HEV; details: literature; cited from earlier work
L-selectin [3] = molecular target: T1, L-selectin (Homo sapiens, UniProt P14151); details: without sulfate; cited from earlier work
T1 sequence (P14151 39-372): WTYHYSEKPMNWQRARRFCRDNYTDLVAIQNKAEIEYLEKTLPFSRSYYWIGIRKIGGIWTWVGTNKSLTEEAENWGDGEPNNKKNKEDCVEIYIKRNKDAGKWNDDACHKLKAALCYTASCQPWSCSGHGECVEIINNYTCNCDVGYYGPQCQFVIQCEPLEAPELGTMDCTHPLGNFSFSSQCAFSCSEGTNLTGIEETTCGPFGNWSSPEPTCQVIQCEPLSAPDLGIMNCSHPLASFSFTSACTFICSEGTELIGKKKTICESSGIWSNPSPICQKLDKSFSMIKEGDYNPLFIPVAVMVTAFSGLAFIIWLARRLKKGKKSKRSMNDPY

[4] = test system: L-selectin, P-selectin and E-selectin; test: Binding of serum GlyCAM-1 to each of the different selectins; details: Ig chimeras of the three selectins
Description: (See FIG. 5). […] These specific conditions are described in detail in Examples 1-3.

- IC50 (L-selectin [1]; L-selectin): 10000 µM
Molecule: O=S(=O)(O)OC[C@H]1O[C@@H](O[C@H]2[C@H](O)[C@@H](O)C(O)O[C@@H]2CO)[C@H](O)[C@@H](O)[C@H]1O (stereo partly drawn) [6'-sulfo lactose]

- IC50 (P-selectin): 140 µM
- IC50 (E-selectin): 4000 µM
- IC50 (L-selectin [1]; L-selectin): 1700 µM
Molecule: 3'-sulfo Lewis a

- IC50 (P-selectin): 0.2 µM
- IC50 (L-selectin [1]; L-selectin): 2 µM
Molecule: O=P(O)(O)O[C@H]1[C@H](OP(=O)(O)O)[C@@H](OP(=O)(O)O)[C@H](OP(=O)(O)O)[C@@H](OP(=O)(O)O)[C@H]1OP(=O)(O)O [phytic acid]

- IC50 (L-selectin [1]; L-selectin): 400 µM
Molecule: O=S(=O)(O)OC[C@H]1O[C@@H](O[C@H]2[C@H](O)[C@@H](O)C(O)O[C@@H]2CO)[C@H](O)[C@@H](OS(=O)(=O)O)[C@H]1O (stereo partly drawn) [3',6'-disulfo lactose]

- IC50 (P-selectin): 3000 µM
- IC50 (E-selectin): 4000 µM
- IC50 (L-selectin [1]; L-selectin): 3000 µM
Molecule: CC(=O)N[C@H]1C(O)O[C@H](CO)[C@@H](O[C@@H]2O[C@H](CO)[C@H](O)[C@H](OS(=O)(=O)O)[C@H]2O)[C@@H]1O[C@@H]1O[C@@H](C)[C@@H](O)[C@@H](O)[C@@H]1O (stereo partly drawn) [3'-sulfo Lewis x]

Continued, molecule first:

Molecule: fucoidan
- Lymphocyte attachment to HEV [2]: active
- IC50 for the inhibition of P-selectin binding to GlyCAM-1 (P-selectin): 0.02 mg/L
- Interaction of L-selectin with GlyCAM-1 (L-selectin [1]): inhibited
- IC50 for the inhibition of L-selectin binding to GlyCAM-1 (L-selectin [1]; L-selectin): 0.2 mg/L

Molecule: O=P(O)(O)OC[C@H]1OC(O)[C@@H](O)[C@@H](O)[C@@H]1O (stereo partly drawn) [mannose-6-phosphate]
- Lymphocyte attachment to HEV [2]: prevent lymphocyte attachment to HEV
- Interaction of L-selectin with GlyCAM-1 (L-selectin [1]): inhibited
- IC50 (L-selectin [1]; L-selectin): 1500 µM

Molecule: O=C(O)CN(CCN(CC(=O)O)CC(=O)O)CC(=O)O [EDTA]
- Interaction of L-selectin with GlyCAM-1 (L-selectin [1]): inhibited

Molecule: sialyl Lewis^x oligosaccharide [sLe^x]
- Affinity for L-selectin (L-selectin [3]): very low affinity

Molecule: O=S(=O)(O)OC[C@H]1O[C@@H](O[C@H]2[C@H](O)[C@@H](O)C(O)O[C@@H]2CO)[C@H](O)[C@@H](OS(=O)(=O)O)[C@H]1OS(=O)(=O)O (stereo partly drawn) [3',4',6'-trisulfo lactose]
- IC50 (L-selectin [1]; L-selectin): 200 µM

B1: GlyCAM-1: a sulfated, fucosylated and sialylated glycoprotein of about 50 kd now termed GlyCAM-1 (protein, UniProt Q02596 20-151, looked up)
Glycosylation-dependent cell …: LPGSKDELQMKTQPTDAIPAAQSTPTSYTSEESTSSKDLSKEPSIFREELISKDNVVIESTKPENQEAQDGLRSGSSQLEETTRPTTSAATTSEENLTKSSQTVEEELGKIIEGFVTGAEDIISGASRITKS
- Binding of serum GlyCAM-1 to the selectins [4]: will bind to each of the different selectins
